Legend:
Type in all cases: cell-based
[1] = test system: Cisplatin resistant cell lines; experiment: Mean IC50 (MTT assay) on Cisplatin resistant cell lines
Protocol: Thus, it can be concluded that the biological activity is mediated by a longer chain (butoxy) at the meta-position, whereas the ortho- and para-positions are more suitable with a shorter chain (ethoxy). To have a further look at the influence of the different ligand systems and substitution patterns, all β-Hydroxydithiocinnamic acid alkyl esters were tested under same conditions as their derived ruthenium(II) complexes (Figure 5B, Supplementary Table S3). […] All ligands are less cytotoxic than Cisplatin itself and therefore the metal(II) center is necessary for the high cytotoxic activity, what is in clear contrast to the literature for O,S-chelating ruthenium(II) or osmium(II) compounds with thiomaltol ligand [48, 71] but confirmed for Ru(II)/Os(II) compounds with N,N-bidentate glycosyl heterocyclic ligands. This is exemplarily shown by the comparison of mean IC50 values for Cisplatin, L14, and Ru14 (Supplementary Figure S8).
(§1) Ovarian cancer cell lines were cultured under standard conditions (5% CO2, 37 °C, 90% humidity) in RPMI medium supplemented with 10% FCS, 100 U/mL penicillin and 100 µg/mL streptomycin (Life Technologies, Dreieich, Germany). Cisplatin (Sigma, Taufkirchen, Germany) was freshly dissolved at 1 mg/mL in 0.9% NaCl solution and diluted appropriately. New ruthenium(II) complexes and ligands were dissolved in dmso. Platinum-resistant A2780 and SKOV3 cells were established by repeated rounds of 3-day incubations with increasing amounts of Cisplatin starting with 0.1 µM. The concentration was doubled after 3 incubations, interrupted by recovery phases with normal medium. […] Determinations of IC50 values were carried out using the CellTiter96 non-radioactive proliferation assay (MTT assay, Promega, Mannheim, Germany). After seeding 5000 cells per well in a 96-well plate, cells were allowed to attach for 24 h and were incubated for 48 h with different concentrations of the substances ranging from 0 to 500 µM for Ruthenium and 0 to 1000 µM for ligand tests (0, 1, 10, 50, 100, 500, 1000 µm), for Cisplatin from 0 to 100 µM (0.1, 1, 5, 10, 50, 100 µM). Each measurement was done in triplicate and repeated 3 times. The proportion of viable cells was quantified by the MTT assay and after background subtraction relative values compared to the mean of medium controls were calculated. Non-linear regression analyses applying the Hill slope were run in GraphPad 5.0 software.

A2780cis = experiment: MTT assay (CellTiter96), cytotoxic activity; settings: for RF A2780 (resistance factor): A2780cis vs A2780; for IC50: Cisplatin resistant A2780, MTT assay, 48 h incubation
Protocol: (§2) The biological behaviour of all substances was characterized by their cytotoxic activity against a panel of cell lines enabling an understanding of the structure-activity relationship. Cytotoxic activity was determined on ovarian carcinoma cell lines SKOV3 and A2780 as well as their Cisplatin resistant analogues (SKOV3cis and A2780cis) and the lung carcinoma cell line A549. Due to a low solubility in water, dmso is used as a solvent for the preparation of a dilution series in cell culture experiments. The toxic influence of dmso was determined earlier and experiments were carried out with 0.5% dmso in cell culture media and this concentration was used as reference sample in each MTT assay (details: Section 3). […] Resistance factors (RF) were determined for all substances (for IC50 values and RF of β-Hydroxydithiocinnamic acid esters L1–L18, see Tables S2 and S3, Supplementary part). All investigated ruthenium(II) compounds show lower RF values than Cisplatin on ovarian carcinoma cell lines, ranging from 0.2 to 1.5 (Table 3). Whereas the IC50 values on the non-resistant cell lines are in most cases higher than the IC50 of the reference substance, no increase of IC50 values is observed for the resistant cell lines. Contrary, eight ruthenium complexes show lower IC50 values on SKOV3cis than Cisplatin and four compounds on A2780cis. Thus, it can be concluded that these compounds are able to bypass the Cisplatin resistance mechanism in these cell lines pointing to a different mechanism of action.
as §1

SKOV3 = experiment: MTT assay (CellTiter96), cytotoxic activity; settings: 48 h incubation
Protocol: as §2, §1

A549 = experiment: MTT assay (CellTiter96), cytotoxic activity; settings: lung carcinoma cell line, 48 h incubation
Protocol: as §2, §1

A2780 = experiment: MTT assay (CellTiter96), cytotoxic activity; settings: 48 h incubation
Protocol: as §2, §1

SKOV3cis = experiment: MTT assay (CellTiter96), cytotoxic activity; settings: for IC50: Cisplatin resistant SKOV3, MTT assay, 48 h incubation; for RF SKOV3 (resistance factor): SKOV3cis vs SKOV3
Protocol: as §2, §1

## CCSC(=S)C=C([O][Ru][Cl])c1ccccc1.Cc1ccc(C(C)C)cc1 [Ru2, [(η^6-p-cymene)Ru(1-phenyl-3-(ethylthio)-3-thioxo-prop-1-en-1-olate-O,S)Cl]]
[1]
  mean IC50 value on Cisplatin resistant cell lines compared with Cisplatin: lower
A2780cis
  RF A2780 (resistance factor): 0.48
  IC50: 4.8 µM
SKOV3
  IC50: 15.7 µM
A549
  IC50: 12.2 µM
A2780
  IC50: 10 µM
SKOV3cis
  IC50: 11.1 µM
  RF SKOV3 (resistance factor): 0.7

## CSC(=S)C=C([O][Ru][Cl])c1ccc(O)cc1.Cc1ccc(C(C)C)cc1 [Ru4, [(η^6-p-cymene)Ru(1-(4-hydroxyphenyl)-3-(methylthio)-3-thioxo-prop-1-en-1-olate-O,S)Cl]]
A2780cis
  RF A2780 (resistance factor): 1
  IC50: 21.4 µM
SKOV3
  IC50: 21.8 µM
A549
  IC50: 26.3 µM
A2780
  IC50: 21.4 µM
SKOV3cis
  IC50: 27.9 µM
  RF SKOV3 (resistance factor): 1.3

## CCSC(=S)C=C([O][Ru][Cl])c1cccc(O)c1.Cc1ccc(C(C)C)cc1 [Ru5, [(η^6-p-cymene)Ru(1-(3-hydroxyphenyl)-3-(ethylthio)-3-thioxo-prop-1-en-1-olate-O,S)Cl]]
[1]
  mean IC50 value on Cisplatin resistant cell lines compared with Cisplatin: lower
A2780cis
  RF A2780 (resistance factor): 0.2
  IC50: 8.1 µM
SKOV3
  IC50: 15.4 µM
A549
  IC50: 11.5 µM
A2780
  IC50: 44.9 µM
SKOV3cis
  IC50: 9.3 µM
  RF SKOV3 (resistance factor): 0.6

## CCSC(=S)C=C([O][Ru][Cl])c1ccc(O)cc1.Cc1ccc(C(C)C)cc1 [Ru6, [(η^6-p-cymene)Ru(1-(4-hydroxyphenyl)-3-(ethylthio)-3-thioxo-prop-1-en-1-olate-O,S)Cl]]
A2780cis
  RF A2780 (resistance factor): 1
  IC50: 15.3 µM
SKOV3
  IC50: 28.6 µM
A549
  IC50: 48.5 µM
A2780
  IC50: 15.4 µM
SKOV3cis
  IC50: 22.6 µM
  RF SKOV3 (resistance factor): 0.8

## [(η^6-p-cymene)Os(1-(2-ethoxyphenyl)-3-(methylthio)-3-thioxo-prop-1-en-1-olate-O,S)] [Os13]
A2780cis
  RF A2780 (resistance factor): 2.7
  IC50: 0.8 µM
SKOV3
  IC50: 4.1 µM
A549
  IC50: 3.1 µM
A2780
  IC50: 0.3 µM
SKOV3cis
  IC50: 7.1 µM
  RF SKOV3 (resistance factor): 1.7

## [(η^6-p-cymene)Os(1-(2-methoxyphenyl)-3-(methylthio)-3-thioxo-prop-1-en-1-olate-O,S)] [Os7]
A2780cis
  RF A2780 (resistance factor): 5.3
  IC50: 2.1 µM
SKOV3
  IC50: 8.8 µM
A549
  IC50: 6.2 µM
A2780
  IC50: 0.4 µM
SKOV3cis
  IC50: 0.6 µM
  RF SKOV3 (resistance factor): 0.1

## [(η^6-p-cymene)Os(1-(3-ethoxyphenyl)-3-(methylthio)-3-thioxo-prop-1-en-1-olate-O,S)] [Os14]
A2780cis
  RF A2780 (resistance factor): 4.3
  IC50: 1.3 µM
SKOV3
  IC50: 10.4 µM
A549
  IC50: 5.5 µM
A2780
  IC50: 0.3 µM
SKOV3cis
  IC50: 12.1 µM
  RF SKOV3 (resistance factor): 1.2

## [(η^6-p-cymene)Ru(1-(2-ethoxyphenyl)-3-(methylthio)-3-thioxo-prop-1-en-1-olate-O,S)] [Ru13]
A2780cis
  RF A2780 (resistance factor): 1.8
  IC50: 4.8 µM
SKOV3
  IC50: 16.9 µM
A549
  IC50: 28.4 µM
A2780
  IC50: 2.6 µM
SKOV3cis
  IC50: 17.4 µM
  RF SKOV3 (resistance factor): 1

## [(η^6-p-cymene)Ru(1-(2-methoxyphenyl)-3-(ethylthio)-3-thioxo-prop-1-en-1-olate-O,S)] [Ru10]
A2780cis
  RF A2780 (resistance factor): 0.8
  IC50: 11.7 µM
SKOV3
  IC50: 27.7 µM
A549
  IC50: 27.7 µM
A2780
  IC50: 14.6 µM
SKOV3cis
  IC50: 17.7 µM
  RF SKOV3 (resistance factor): 0.6

## [(η^6-p-cymene)Ru(1-(2-methoxyphenyl)-3-(methylthio)-3-thioxo-prop-1-en-1-olate-O,S)] [Ru7]
A2780cis
  RF A2780 (resistance factor): 0.9
  IC50: 15 µM
SKOV3
  IC50: 22.4 µM
A549
  IC50: 15.3 µM
A2780
  IC50: 16.4 µM
SKOV3cis
  IC50: 17.8 µM
  RF SKOV3 (resistance factor): 0.8

## [(η^6-p-cymene)Ru(1-(3-butoxyphenyl)-3-(methylthio)-3-thioxo-prop-1-en-1-olate-O,S)] [Ru16]
A2780cis
  RF A2780 (resistance factor): 1.3
  IC50: 6.8 µM
SKOV3
  IC50: 13.2 µM
A549
  IC50: 4.9 µM
A2780
  IC50: 5.4 µM
SKOV3cis
  IC50: 13.2 µM
  RF SKOV3 (resistance factor): 1

## [(η^6-p-cymene)Ru(1-(3-methoxyphenyl)-3-(ethylthio)-3-thioxo-prop-1-en-1-olate-O,S)] [Ru11]
A2780cis
  RF A2780 (resistance factor): 0.8
  IC50: 11.8 µM
SKOV3
  IC50: 17 µM
A549
  IC50: 19 µM
A2780
  IC50: 15.6 µM
SKOV3cis
  IC50: 16.8 µM
  RF SKOV3 (resistance factor): 1

## [(η^6-p-cymene)Ru(1-(3-methoxyphenyl)-3-(methylthio)-3-thioxo-prop-1-en-1-olate-O,S)] [Ru8]
A2780cis
  RF A2780 (resistance factor): 1.2
  IC50: 16.8 µM
SKOV3
  IC50: 21.3 µM
A549
  IC50: 13.7 µM
A2780
  IC50: 14.3 µM
SKOV3cis
  IC50: 20.3 µM
  RF SKOV3 (resistance factor): 1

## [(η^6-p-cymene)Ru(1-(4-butoxyphenyl)-3-(methylthio)-3-thioxo-prop-1-en-1-olate-O,S)] [Ru17]
A2780cis
  RF A2780 (resistance factor): 0.7
  IC50: 9.8 µM
SKOV3
  IC50: 17.2 µM
A549
  IC50: 15.1 µM
A2780
  IC50: 14.2 µM
SKOV3cis
  IC50: 17.5 µM
  RF SKOV3 (resistance factor): 1

## [(η^6-p-cymene)Ru(1-(4-ethoxyphenyl)-3-(methylthio)-3-thioxo-prop-1-en-1-olate-O,S)] [Ru15]
[1]
  mean IC50 value on Cisplatin resistant cell lines compared with Cisplatin: lower
A2780cis
  RF A2780 (resistance factor): 0.8
  IC50: 4.4 µM
SKOV3
  IC50: 7.4 µM
A549
  IC50: 16.5 µM
A2780
  IC50: 5.8 µM
SKOV3cis
  IC50: 3.7 µM
  RF SKOV3 (resistance factor): 0.5

## [(η^6-p-cymene)Ru(1-(4-methoxyphenyl)-3-(ethylthio)-3-thioxo-prop-1-en-1-olate-O,S)] [Ru12]
A2780cis
  RF A2780 (resistance factor): 0.9
  IC50: 10.1 µM
SKOV3
  IC50: 24 µM
A549
  IC50: 6.9 µM
A2780
  IC50: 11 µM
SKOV3cis
  IC50: 12.7 µM
  RF SKOV3 (resistance factor): 0.5

## [(η^6-p-cymene)Ru(1-(4-methoxyphenyl)-3-(methylthio)-3-thioxo-prop-1-en-1-olate-O,S)] [Ru9]
A2780cis
  RF A2780 (resistance factor): 0.7
  IC50: 16.4 µM
SKOV3
  IC50: 25.3 µM
A549
  IC50: 39.6 µM
A2780
  IC50: 24.2 µM
SKOV3cis
  IC50: 12.5 µM
  RF SKOV3 (resistance factor): 0.5

Source: paper PMC9102668, “Highly Cytotoxic Osmium(II) Compounds and Their Ruthenium(II) Analogues Targeting Ovarian Carcinoma Cell Lines and Evading Cisplatin Resistance Mechanisms” (International Journal of Molecular Sciences, 2022)
